Test results taken from ChEMBL document CHEMBL3112474, “Discovery of substituted lactams as novel dual orexin receptor antagonists. Synthesis, preliminary structure-activity relationship studies and efforts towards improved metabolic stability and pharmacokinetic properties. Part 1” (Bioorg Med Chem Lett, 2014).

Experiments:
[1] = Intrinsic clearance in human liver microsomes at 1 uM; assay type: ADME; details: read-out: CLH
Orexin receptor type 2 = target: T1, Orexin receptor type 2 (Homo sapiens, UniProt O43614); test: Antagonist activity at human orexin 2 receptor expressed in CHO cells assessed as inhibition of orexin-A-induced calcium mobilization by FLIPR assay; assay type: functional, cell-based
T1 sequence (O43614 whole entry): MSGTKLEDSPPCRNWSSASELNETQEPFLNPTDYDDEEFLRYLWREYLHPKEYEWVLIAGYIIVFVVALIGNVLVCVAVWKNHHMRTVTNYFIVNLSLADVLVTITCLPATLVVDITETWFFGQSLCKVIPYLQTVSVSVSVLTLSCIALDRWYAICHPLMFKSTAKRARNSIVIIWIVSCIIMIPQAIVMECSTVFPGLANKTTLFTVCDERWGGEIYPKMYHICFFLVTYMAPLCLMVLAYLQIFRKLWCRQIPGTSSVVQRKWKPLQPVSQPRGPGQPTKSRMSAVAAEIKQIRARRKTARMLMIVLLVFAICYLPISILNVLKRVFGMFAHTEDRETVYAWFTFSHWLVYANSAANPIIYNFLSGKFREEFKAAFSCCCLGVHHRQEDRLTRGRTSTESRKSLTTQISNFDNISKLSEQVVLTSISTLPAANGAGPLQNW

[2] = target: T2, Orexin/Hypocretin receptor type 1 (Homo sapiens, UniProt O43613); test: Antagonist activity at human orexin 1 receptor expressed in CHO cells assessed as inhibition of orexin-A-induced calcium mobilization by FLIPR assay; assay type: functional, cell-based
T2 sequence (O43613 whole entry): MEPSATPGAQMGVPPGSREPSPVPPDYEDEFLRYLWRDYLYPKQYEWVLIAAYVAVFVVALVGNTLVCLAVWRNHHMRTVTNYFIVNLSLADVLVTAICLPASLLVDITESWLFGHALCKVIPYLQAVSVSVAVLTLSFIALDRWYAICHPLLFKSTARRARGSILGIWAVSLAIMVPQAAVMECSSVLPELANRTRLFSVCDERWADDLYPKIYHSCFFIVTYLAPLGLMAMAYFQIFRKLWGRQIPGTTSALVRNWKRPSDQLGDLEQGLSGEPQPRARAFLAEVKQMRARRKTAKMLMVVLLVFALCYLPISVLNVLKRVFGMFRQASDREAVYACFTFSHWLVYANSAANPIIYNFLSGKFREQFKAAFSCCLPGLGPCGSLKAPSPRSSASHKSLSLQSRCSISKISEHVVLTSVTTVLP

[3] = Half life in human liver microsomes; assay type: ADME
[4] = Plasma concentration in Wistar rat at 100 mg/kg, po after 3 hrs; assay type: ADME, organism-based; set-up: dose 100 mg/kg, route oral
[5] = Ratio of drug level in brain to plasma in Wistar rat at 100 mg/kg, po after 3 hrs; assay type: ADME, organism-based; set-up: dose 100 mg/kg, route oral; details: read-out: BPR
[6] = Drug level in Wistar rat brain at 100 mg/kg, po after 3 hrs; assay type: ADME, organism-based; set-up: dose 100 mg/kg, route oral; details: read-out: Drug uptake
Cytochrome P450 2D6 = Cytochrome P450 2D6 (Homo sapiens, UniProt P10635); test: Inhibition of CYP2D6 (unknown origin); assay type: ADME
Cytochrome P450 3A4 = Cytochrome P450 3A4 (Homo sapiens, UniProt P08684); test: Inhibition of CYP3A4 (unknown origin); assay type: ADME
Cytochrome P450 2C9 = Cytochrome P450 2C9 (Homo sapiens, UniProt P11712); test: Inhibition of CYP2C9 (unknown origin); assay type: ADME
[7] = Intrinsic clearance in rat liver microsomes at 1 uM; assay type: ADME; details: read-out: CLH
Cerebrospinal fluid = test: Drug level in Wistar rat cerebrospinal fluid at 100 mg/kg, po; assay type: ADME, organism-based; set-up: dose 100 mg/kg, route oral; details: in vivo
MDR1 [8] = test: Apparent passive permeability across basolateral to apical side in MDCK cells expressing human MDR1; assay type: ADME, cell-based, Canis lupus familiaris; details: dog
MDR1 [9] = test: Apparent passive permeability across apical to basolateral side in MDCK cells expressing human MDR1; assay type: ADME, cell-based, Canis lupus familiaris; details: dog

Chain of Cytochrome P450 2C9 (P11712 whole entry): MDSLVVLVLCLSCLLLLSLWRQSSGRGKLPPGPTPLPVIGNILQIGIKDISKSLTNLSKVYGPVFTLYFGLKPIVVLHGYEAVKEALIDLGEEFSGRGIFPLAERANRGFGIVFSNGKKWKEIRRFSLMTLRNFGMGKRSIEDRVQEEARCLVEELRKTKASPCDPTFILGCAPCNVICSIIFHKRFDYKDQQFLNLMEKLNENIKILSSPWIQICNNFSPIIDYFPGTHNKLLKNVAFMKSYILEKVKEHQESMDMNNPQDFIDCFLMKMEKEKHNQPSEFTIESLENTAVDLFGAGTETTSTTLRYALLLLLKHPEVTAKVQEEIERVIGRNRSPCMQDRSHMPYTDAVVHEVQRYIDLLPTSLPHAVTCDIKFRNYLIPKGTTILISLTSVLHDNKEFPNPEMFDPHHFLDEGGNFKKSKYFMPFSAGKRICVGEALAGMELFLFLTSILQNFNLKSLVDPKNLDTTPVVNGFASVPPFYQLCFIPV
Chain of Cytochrome P450 3A4 (P08684 whole entry): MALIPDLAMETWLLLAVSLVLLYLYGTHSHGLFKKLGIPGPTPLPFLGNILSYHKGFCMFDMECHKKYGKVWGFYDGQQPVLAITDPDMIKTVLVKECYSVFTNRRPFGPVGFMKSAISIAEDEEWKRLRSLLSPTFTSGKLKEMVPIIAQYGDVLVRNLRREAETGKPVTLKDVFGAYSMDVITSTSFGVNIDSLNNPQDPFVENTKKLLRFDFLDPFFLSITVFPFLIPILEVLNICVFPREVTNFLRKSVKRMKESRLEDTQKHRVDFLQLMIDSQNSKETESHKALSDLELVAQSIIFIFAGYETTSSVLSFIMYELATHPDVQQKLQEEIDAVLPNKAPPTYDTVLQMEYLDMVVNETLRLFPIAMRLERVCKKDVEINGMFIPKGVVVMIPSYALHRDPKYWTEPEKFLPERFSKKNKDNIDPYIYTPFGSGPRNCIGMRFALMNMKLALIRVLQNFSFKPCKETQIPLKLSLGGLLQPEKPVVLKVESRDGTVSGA
Chain of Cytochrome P450 2D6 (P10635 whole entry): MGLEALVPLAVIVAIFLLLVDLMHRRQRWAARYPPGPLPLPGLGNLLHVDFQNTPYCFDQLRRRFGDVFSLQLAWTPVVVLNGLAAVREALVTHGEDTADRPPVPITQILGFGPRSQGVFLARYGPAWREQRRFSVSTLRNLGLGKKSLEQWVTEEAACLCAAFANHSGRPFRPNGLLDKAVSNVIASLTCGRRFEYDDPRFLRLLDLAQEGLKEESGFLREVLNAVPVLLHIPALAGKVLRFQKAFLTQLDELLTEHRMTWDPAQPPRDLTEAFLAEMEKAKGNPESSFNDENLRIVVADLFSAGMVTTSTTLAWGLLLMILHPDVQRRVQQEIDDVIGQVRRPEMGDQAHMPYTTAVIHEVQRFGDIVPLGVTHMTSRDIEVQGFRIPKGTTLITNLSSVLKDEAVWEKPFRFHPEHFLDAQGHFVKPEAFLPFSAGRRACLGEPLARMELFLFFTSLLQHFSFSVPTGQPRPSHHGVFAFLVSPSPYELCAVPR

microsomal CLint at 1 µM [1] [µL/min/mg] | SMILES | IC50 (Orexin receptor type 2) [µM] | IC50 [2] [µM] | also measured
> 1250 | COc1cccc(OC)c1C1CCCC(=O)N1Cc1cccc(-c2ncccn2)c1 (configuration not stated) | – | – | –
649 | COc1cccc(OC)c1C1CCC(C)C(=O)N1Cc1ccc(OC(F)(F)F)cc1 (mixture of isomers) | – | – | –
645 | COc1cccc(OC)c1C1CC(C)CC(=O)N1Cc1ccc(OC(F)(F)F)cc1 (mixture of isomers) | – | – | –
88 | COc1cccc(OC)c1C1CC(C)C(=O)N1Cc1ccc2sc(C)nc2c1 (mixture of isomers) | – | – | –
> 1250 | COc1cccc(OC)c1C1CCCC(=O)N1Cc1ccc2ccccc2c1 (racemic) | – | – | half-life [3]: < 1 min
1200 | COc1cccc(OC)c1C1CCCC(=O)N1Cc1ccc2oc3ccccc3c2c1 (racemic) | – | – | –
> 1250 | COc1cccc(OC)c1C1CCCC(=O)N1Cc1cccc(-c2ccccc2)n1 (racemic) | – | – | –
> 1250 | COc1cccc(OC)c1C1CCCC(=O)N1Cc1ccnc(-c2ccccc2)c1 (racemic) | – | – | –
> 1250 | COc1cccc(OC)c1C1CCCC(=O)N1Cc1cccc(-c2ccccn2)c1 (racemic) | – | – | –
> 1250 | COc1cccc(OC)c1C1CCCC(=O)N1Cc1cccc(-c2csc(C)n2)c1 (racemic) | – | – | –
> 1250 | COc1cccc(OC)c1C1CCCC(=O)N1Cc1cccc(-n2nccn2)c1 (racemic) | – | – | –
> 1250 | COc1cccc(OC)c1C1COCC(=O)N1Cc1ccc(OC(F)(F)F)cc1 (racemic) | – | – | –
257 | COc1cccc(OC)c1[C@H]1C[C@H](C)C(=O)N1Cc1ccc(OC(F)(F)F)cc1 (racemic) | – | – | –
670 | COc1cccc(OC)c1C1CCC(=O)N1Cc1ccc(OC(F)(F)F)cc1 (racemic) | – | – | –

Further lines, the compound ahead of its results:

SMILES | microsomal CLint at 1 µM [1] [µL/min/mg] | IC50 (Orexin receptor type 2) [µM] | IC50 [2] [µM] | also measured
COc1cccc(OC)c1C1CCCC(=O)N1C(C)c1ccc(OC(F)(F)F)cc1 (mixture of isomers) | > 1250 | 0.021 | 0.142 | –
COc1cccc(OC)c1C1C2CC2C(=O)N1Cc1ccc(OC(F)(F)F)cc1 (mixture of isomers) | – | 1.07 | 1.15 | –
COc1cccc(OC)c1C1CC(C)C(=O)N1Cc1ccc2oc3ccccc3c2c1 (mixture of isomers) | 260 | 0.009 | 0.004 | –
COc1cc(OC)c(C2CCCCN2Cc2ccc(OC(F)(F)F)cc2)c(OC)c1 (racemic) | – | > 10 | 1.59 | –
COc1cccc(OC)c1C1CCCC(=O)N1Cc1ccc2ccccc2n1 (racemic) | – | – | 0.049 | –
COc1cccc(F)c1C1CCCC(=O)N1Cc1ccc(OC(F)(F)F)cc1 (racemic) | – | 0.161 | – | –
COc1cccc(OC)c1C1CCCC(=O)N1Cc1ccccc1 (racemic) | – | 0.416 | 2.42 | –
COc1cccc(OC)c1C1CCCC(=O)N1c1ccccc1 (racemic) | – | > 10 | > 10 | –
COc1cccc(OC)c1C1CCCC(=O)N1CCc1ccccc1 (racemic) | – | 1.33 | 9.7 | –
COc1cccc(OC)c1C1CCCC(=O)N1Cc1ccc(Oc2ccccc2)cc1 (racemic) | – | 0.029 | 0.531 | –
COc1cccc(OC)c1C1CCCC(=O)N1Cc1cccc(-c2ccccc2)c1 (racemic) | > 1250 | 0.028 | 0.065 | –
COc1cccc(OC)c1C1CCCC(=O)N1Cc1cnc2ccccc2c1 (racemic) | – | 0.217 | 0.675 | –
COc1cccc(OC)c1C1CCCC(=O)N1Cc1ccc2sc(C)nc2c1 (racemic) | 860 | 0.012 | 0.032 | –
COc1cccc(OC)c1C1CCCC(=O)N1Cc1ccnc(-c2nccs2)c1 (racemic) | > 1250 | – | – | –
COc1cccc(OC)c1C1CCCC(=O)N1Cc1ccnc(-n2cccn2)c1 (racemic) | > 1250 | – | – | –
COc1cccc(OC)c1C1CCCC(=O)N1Cc1csc(-c2ccccc2)n1 (racemic) | > 1250 | 0.006 | 0.045 | –
COc1ccnc(OC)c1C1CCCC(=O)N1Cc1ccc2oc3ccccc3c2c1 (racemic) | 1130 | – | – | –
COc1ccnc(OC)c1C1CCCC(=O)N1Cc1csc(-c2ccccc2)n1 (racemic) | 912 | – | – | –
COc1ccc2nc(C)oc2c1C1CCCC(=O)N1Cc1cccc(-c2ccccc2)c1 (racemic) | > 1250 | 0.093 | 0.054 | –
COc1ccc2nc(C)oc2c1C1CCCC(=O)N1Cc1cccc(-c2csc(C)n2)c1 (racemic) | > 1250 | 0.065 | 0.017 | –
COc1cccc(OC)c1C1COC(=O)N1Cc1ccc(OC(F)(F)F)cc1 (racemic) | – | 0.771 | 2.65 | –
COc1cccc(OC)c1C1c2ccccc2C(=O)N1Cc1ccc(OC(F)(F)F)cc1 (racemic) | – | > 10 | > 10 | –
COc1cccc(OC)c1C1SCC(=O)N1Cc1ccc(OC(F)(F)F)cc1 (racemic) | – | 0.016 | 0.155 | –
COc1cccc(OC)c1C1CCCC(=O)N1Cc1ccc(OC(F)(F)F)cc1 (racemic) | > 1250 | 0.025 | 0.284 | concentration at 3 h [4]: 0.094 µg/mL; Kp at 3 h [5]: 1.6; concentration at 3 h [6]: 153 ng/g
COc1cccc(OC)c1C1CCCCC(=O)N1Cc1ccc(OC(F)(F)F)cc1 (racemic) | > 1250 | 0.074 | 0.264 | –
COc1cccc(OC)c1C1CCCC(=O)N1Cc1ccc2ccccc2n1 (single isomer, unassigned) | > 1250 | – | – | IC50 (Cytochrome P450 2D6): > 30 µM; IC50 (Cytochrome P450 3A4): > 30 µM; IC50 (Cytochrome P450 2C9): > 30 µM; microsomal CLint at 1 µM [7]: > 1250 µL/min/mg; Drug uptake (Cerebrospinal fluid): 23 ng/mL; Papp B→A (MDR1 [8]): 632 nm/s; Papp A→B (MDR1 [9]): 242 nm/s; concentration at 3 h [4]: 0.14 µg/mL; Kp at 3 h [5]: 0.8; concentration at 3 h [6]: 108 ng/g
